Source: patent US8980881B2, “Crystalline forms of (R)-8-chloro-1-methyl-2,3,4,5-tetrahydro-1H-3-benzazepine hydrochloride” (priority 2004, dated 2015)
“Also recorded” adds a separate entry of the source. Counter-ions that a name gives are not always drawn.

Assays:
[1] = Dynamic vapor sorption (DVS) scan, with XRPD after the cycle; assay type: physicochemical; settings: for crystalline form after DVS cycle: XRPD after the DVS cycle; for moisture adsorbed: between about 40 and about 80% RH, calculated from DVS; for DVS: adsorbs (moisture) / DVS: adsorption transition at / DVS: deliquescent above / DVS: hygroscopicity: dynamic vapor sorption
From the text: FIG. 4 depicts a dynamic vapor sorption (DVS) scan for crystalline Form I of the invention (VTI dynamic vapor desorption analyzer).
FIG. 8 depicts a dynamic vapor sorption (DVS) scan for crystalline Form II of the invention (VTI dynamic vapor desorption analyzer).
FIG. 12 depicts a dynamic vapor sorption (DVS) scan for crystalline Form III of the invention.
The various crystalline forms of (R)-8-chloro-1-methyl-2,3,4,5-tetrahydro-1H-3-benzazepine hydrochloride can be identified by their unique solid state signatures with respect to, for example, differential scanning calorimetry (DSC), X-ray powder diffraction (XRPD), and other solid state methods. Further characterization with respect to water or solvent content of the crystalline forms can be gauged by any of various routine methods such as thermogravimetric analysis (TGA), dynamic vapor sorption (DVS), DSC and other techniques. For DSC, it is known that the temperatures observed will depend upon the rate of temperature change as well as sample preparation technique and the particular instrument employed. Thus, the values reported herein relating to DSC thermograms can vary by plus or minus about 4° C. For XRPD, the relative intensities of the peaks can vary, depending upon the sample preparation technique, the sample mounting procedure and the particular instrument employed. Moreover, instrument variation and other factors can often affect the 2-theta values. Therefore, the peak assignments of diffraction patterns can vary by plus or minus about 0.2°.
XRPD carried out on both Forms I and II after the DVS cycle confirmed this conversion.

[2] = Heat stability of crystalline form, XRPD analysis after heating; assay type: physicochemical
Protocol: A sample of Form I was heated to 160° C. in a TGA furnace for about 15 min when heated at a rate of about 10° C./min.
A sample of Form III was heated to 60° C. for at least 2 hours.
A sample of Form III was heated to 60° C. for one day.
A sample of Form III was heated to 80° C. for 30 minutes.
A sample of Form III was heated to 80° C. for 1 day.

In the case of `C[C@H]1CNCCc2ccc(Cl)cc21` [Form I, (R)-8-chloro-1-methyl-2,3,4,5-tetrahydro-1H-3-benzazepine hydrochloride], the “crystalline form after DVS cycle” value ([1]; hydrochloride) is reported as “conversion to the hemihydrate (Form III); also recorded: crystalline form changes”, the moisture adsorbed [1] is reported as “about 3.8 wt %” and the “DVS: adsorbs (moisture)” value [1] is reported as “adsorbs about 3.8 wt %;”. For the same compound, the “DVS: adsorption transition at” value ([1]; hydrochloride) was “about 60% RH;”, the “DVS: deliquescent above” value ([1]; hydrochloride) was “deliquescent above 90% RH” and the “DVS: hygroscopicity” value ([1]; hydrochloride) was “hygroscopic; also recorded: hygroscopic;”. The “conversion upon exposure to moisture” value [1] was “readily convert to Form III” and the “crystal form after heating (XRPD)” value ([2]; heated to 160° C. in a TGA furnace for about 15 min, about 10° C./min) was “no change in crystal form”.

In the case of `C[C@H]1CNCCc2ccc(Cl)cc21` [Form II, (R)-8-chloro-1-methyl-2,3,4,5-tetrahydro-1H-3-benzazepine hydrochloride], the “crystalline form after DVS cycle” value ([1]; hydrochloride) is reported as “conversion to the hemihydrate (Form III); also recorded: crystalline form changes”, the moisture adsorbed [1] is reported as “about 3.8 wt %” and the “DVS: adsorbs (moisture)” value [1] is reported as “adsorbs about 3.8 wt %;”. For the same compound, the “DVS: adsorption transition at” value ([1]; hydrochloride) was “about 40% RH;”, the “DVS: deliquescent above” value ([1]; hydrochloride) was “deliquescent above 90% RH” and the “DVS: hygroscopicity” value ([1]; hydrochloride) was “hygroscopic; also recorded: hygroscopic;”. For the same compound, the “conversion upon exposure to moisture” value [1] was “readily convert to Form III”.

For `C[C@H]1CNCCc2ccc(Cl)cc21` [Form III, (R)-8-chloro-1-methyl-2,3,4,5-tetrahydro-1H-3-benzazepine hydrochloride Hemihydrate], the “crystalline form after DVS cycle” value ([1]; hydrochloride Hemihydrate) was “no change in crystalline form”, the “DVS: adsorption at 90% RH” value ([1]; at 90% RH) was “adsorption of less than 0.5%” and the water adsorbed ([1]; at 90% RH) was “less than 0.5 wt %”. The “DVS: deliquescent above” value ([1]; hydrochloride Hemihydrate) was “deliquescent above 95% RH;”, the “DVS: hygroscopicity” value ([1]; hydrochloride Hemihydrate) was “substantially non-hygroscopic” and the “crystal form after heating (XRPD)” value ([2]; heated to 60° C. for at least 2 hours) was “substantially no change in crystal form”. The “crystal form after heating (XRPD)” value ([2]; heated to 60° C. for one day) was “partial conversion to Form I”, the “crystal form after heating (XRPD)” value ([2]; heated to 80° C. for 30 minutes) was “partial conversion to Form I” and the “crystal form after heating (XRPD)” value ([2]; heated to 80° C. for 1 day) was “partial conversion to Form I”.
